# Laboratory results as given in US20030175690A1 (priority 1999, published 2003).
# Target: NL4-3 protease (Human immunodeficiency virus type 1 group M subtype B, UniProt P12497)
# Conditions: reference clone reconstructed with NL4-3 protease; HeLa cells; drug 0.1 μM; supernatant 48 hours after transfection
# Description: Positive colonies were grown in 5 mL LB medium, the plasmids extracted, and HeLa cells grown to 50% confluence on an 8-well plate (Costar), transfected by lipofectin (Bethesda Research Laboratories) in triplicate using pΔproΔRTΔenv (0.5 μg) containing the exogenous HIV-1 PR sequences. […] The degree of inhibition of viral expression was documented by the ratio between the levels of p24Ag detected in the presence and in the absence of the anti-viral compound (R=p24Ag^drug,/p24Ag^medium). The percent Sensitivity Index (SI%=100×R^reference/R^sample) was introduced to normalise differences due to cell related variables among different experiments. Proteases displaying SI% values greater than 80% were considered fully sensitive; partially sensitive (intermediate phenotype) between 80 and 60%; and resistant when lower than 60%.
# The HIV-1 PR coding sequences amplified from the 13 culture supernatants or directly from the 6 plasma samples were cloned into the pΔproΔRTΔenv nonreplicative backbone, and the resulting plasmids were transfected into semiconfluent HeLa cells. After 48 hours of incubation the supernatants were assayed for HIV-1 p24Ag concentration.
# This index was determined by normalising the R value of each clinical sample (R^sample) to that of the NL4-3 reference strain (R^reference) evaluated in parallel experiment, according to the function SI%=100×R^reference/R^sample.
structure (smiles),measurement,value
"CC(C)c1nc(CN(C)C(=O)N[C@H](C(=O)N[C@@H](Cc2ccccc2)C[C@H](O)[C@H](Cc2ccccc2)NC(=O)OCc2cncs2)C(C)C)cs1 [RTV, ritonavir]","production of HIV-1 p24Ag by the reference clone in the presence of drug, compared with PI-free medium",strongly inhibited
